Results published in patent US20080276732A1, “INDICATOR FOR ORALLY ADMINISTERED COMPOSITIONS” (MULTI FORMULATIONS LTD., priority 2007, published 2008).
Where “and” joins values, the source holds several entries; their conditions need not be identical. Equal values may be shown once. Entries after “also recorded” stand apart in the source; their conditions may differ. Read-outs that look alike come from different tables or passages of the source.

Legend:
subjects [1] = test: Testing the efficacy of Yohimbine in capsule form: perceived sensory effects after oral administration; format: in vivo, human
Description: In order to test the ability of orally administered Yohimbine to induce a sensory effect a test was conducted. Four subjects were given a capsule containing Yohimbine and asked to report on any perceived sensory effects. Each capsule contained 5 mg of Yohimbine and filled to 150 mg with lactose as a filler-binder.

subjects [2] = test: Testing the efficacy of Picamilon in capsule form: perceived sensory effects after oral administration; format: in vivo, human; settings: single 100 mg oral dose of Picamilon
Description: In order to test the ability of orally administered Picamilon to induce a sensory effect a test was conducted. Six subjects were given a capsule containing Picamilon and asked to report on any perceived sensory effects. Each capsule contained 100 mg of Picamilon and filled to 150 mg with lactose as a filler-binder.

subjects [3] = settings: single 30 mg oral dose of Niacin
Description: In order to test the ability of orally administered Niacin to induce a sensory effect a test was conducted. Five subjects were given a capsule containing Niacin and asked to report on any perceived sensory effects. Each capsule contained 30 mg of Niacin and filled to 150 mg with lactose as a filler-binder. Subjects were informed of the capsule contents and of possible effects. Subjects were asked to report any sensory effects felt, the time to onset and the duration of any effects.

individuals = settings: Niacin at pharmacologically active doses; Benyo et al. 2005; cited from earlier work
[4] = single 5 mg oral dose of Yohimbine, per subject
[5] = per subject, subject 1 separately for warmth and tingling

COC(=O)[C@@H]1[C@H]2C[C@H]3c4[nH]c5ccccc5c4CCN3C[C@@H]2CC[C@@H]1O [Yohimbine]
onset time and duration of perceived sensory effects on average compared with Niacin and Picamilon (subjects [1]; 5 mg Yohimbine, oral): longer onset time and longer duration | subjects who reported noticeable effects (subjects [1]; single 5 mg oral dose of Yohimbine, four subjects): three of the four | Duration (subjects [1]; [4]): 10 to 15 min and 60 min and 120 min | Time to Onset (subjects [1]; [4]): 1 h and 0.5 h and 0.25 h

O=C(O)CCCNC(=O)c1cccnc1 [Picamilon, N-nicotinoyl-gamma-aminobutyric acid]
Sensory Effect(s) (subjects [2]; capsule, one line per subject (1-6)): tingling; also recorded: relaxation; also recorded: warmth - body | Duration (subjects [2]; per subject): 1.5 h | Duration (subjects [2]; [5]): 15-20 min and 45 min and 5 min (warmth) and 15 min | Time to Onset (subjects [2]; [5]): 15 min and 15-20 min (2×) and 10 min (warmth) and 30 min | subjects who reported noticeable effects (subjects [2]; six subjects): four of the six

O=C(O)c1cccnc1 [Niacin, nicotinic acid]
Duration (subjects [3]; capsule, one line per subject): 45 min (2×) and 15 min | Time to Onset (subjects [3]; capsule, one line per subject): 10 to 15 min and 20 min and 15 min | subjects who experienced transient sensory effects (subjects [3]; five subjects): three of the five | time until the individual perceives a sensory effect (summary) (subjects [3]; summary of Table 1): ≤ 15 min | duration of the flushing effect (individuals): about 1 hr
